According to ChEMBL document CHEMBL4811281, “Identification of aryl sulfonamides as novel and potent inhibitors of NaV1.5” (Bioorg Med Chem Lett, 2021):
The source made the active and inactive calls. The rule behind the calls is not given here.

Experiments:
Homo sapiens [1] = species: Homo sapiens; assay: Selectivity ratio of IC50 for inhibition of human Nav1.5 VSD4 F1759A mutant to IC50 for inhibition of human Nav1.5 by automated voltage clamp electrophysiology
[2] = target: T1, Sodium channel protein type 5 subunit alpha (Homo sapiens, UniProt Q14524); assay: Inhibition of human Nav1.5 by automated voltage clamp electrophysiology
T1 sequence (Q14524 whole entry): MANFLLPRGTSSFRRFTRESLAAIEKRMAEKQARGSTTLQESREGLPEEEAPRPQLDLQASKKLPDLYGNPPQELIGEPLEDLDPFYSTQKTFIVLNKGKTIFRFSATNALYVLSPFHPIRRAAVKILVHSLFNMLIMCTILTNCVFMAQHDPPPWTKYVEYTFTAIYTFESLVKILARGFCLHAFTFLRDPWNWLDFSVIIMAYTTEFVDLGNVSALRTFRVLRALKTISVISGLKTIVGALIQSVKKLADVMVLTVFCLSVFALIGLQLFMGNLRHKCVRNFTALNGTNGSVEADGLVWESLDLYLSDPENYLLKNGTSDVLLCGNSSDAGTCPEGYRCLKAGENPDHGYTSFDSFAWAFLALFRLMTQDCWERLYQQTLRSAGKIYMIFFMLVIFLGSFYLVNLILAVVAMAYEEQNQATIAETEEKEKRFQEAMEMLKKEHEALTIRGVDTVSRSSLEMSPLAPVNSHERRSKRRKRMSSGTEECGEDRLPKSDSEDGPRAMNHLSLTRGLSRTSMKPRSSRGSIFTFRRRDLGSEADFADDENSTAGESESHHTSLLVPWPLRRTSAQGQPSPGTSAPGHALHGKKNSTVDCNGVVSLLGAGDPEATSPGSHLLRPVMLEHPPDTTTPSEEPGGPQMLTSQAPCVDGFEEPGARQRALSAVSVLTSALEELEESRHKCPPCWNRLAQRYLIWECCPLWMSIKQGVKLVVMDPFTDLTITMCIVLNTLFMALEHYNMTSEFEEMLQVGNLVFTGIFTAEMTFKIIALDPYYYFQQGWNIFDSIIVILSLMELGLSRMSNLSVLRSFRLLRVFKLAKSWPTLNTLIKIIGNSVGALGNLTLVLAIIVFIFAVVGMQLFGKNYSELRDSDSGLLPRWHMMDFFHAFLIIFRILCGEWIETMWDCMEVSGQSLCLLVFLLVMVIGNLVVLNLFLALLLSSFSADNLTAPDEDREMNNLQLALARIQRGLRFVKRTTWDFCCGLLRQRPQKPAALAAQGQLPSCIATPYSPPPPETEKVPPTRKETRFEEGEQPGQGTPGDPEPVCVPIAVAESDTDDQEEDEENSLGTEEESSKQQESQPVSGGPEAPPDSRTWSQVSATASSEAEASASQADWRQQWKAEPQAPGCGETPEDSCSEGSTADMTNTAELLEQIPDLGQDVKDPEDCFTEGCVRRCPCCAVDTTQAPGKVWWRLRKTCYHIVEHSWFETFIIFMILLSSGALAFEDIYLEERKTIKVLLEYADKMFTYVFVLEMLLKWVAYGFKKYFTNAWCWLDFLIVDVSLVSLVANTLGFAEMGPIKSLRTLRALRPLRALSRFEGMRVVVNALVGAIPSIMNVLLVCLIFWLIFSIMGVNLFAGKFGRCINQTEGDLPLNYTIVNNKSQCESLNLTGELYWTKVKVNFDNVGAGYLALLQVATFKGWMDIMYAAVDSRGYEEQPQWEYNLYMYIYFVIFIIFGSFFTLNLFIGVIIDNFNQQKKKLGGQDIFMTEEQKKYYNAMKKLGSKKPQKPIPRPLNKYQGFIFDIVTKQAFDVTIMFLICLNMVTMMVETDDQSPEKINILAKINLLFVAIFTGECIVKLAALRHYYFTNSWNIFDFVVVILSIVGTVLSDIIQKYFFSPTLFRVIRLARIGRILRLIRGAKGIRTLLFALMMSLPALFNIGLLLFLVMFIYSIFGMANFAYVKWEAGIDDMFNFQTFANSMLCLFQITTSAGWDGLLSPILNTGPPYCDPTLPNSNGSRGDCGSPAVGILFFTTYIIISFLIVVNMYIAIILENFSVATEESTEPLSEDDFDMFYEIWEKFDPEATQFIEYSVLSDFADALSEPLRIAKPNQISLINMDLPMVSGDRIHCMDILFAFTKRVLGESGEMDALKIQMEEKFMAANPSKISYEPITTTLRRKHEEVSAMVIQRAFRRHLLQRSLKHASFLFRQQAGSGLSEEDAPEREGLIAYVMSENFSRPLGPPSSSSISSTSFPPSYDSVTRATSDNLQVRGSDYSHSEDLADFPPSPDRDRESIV

[3] = target: T2, Sodium channel protein type 1 subunit alpha (Homo sapiens, UniProt P35498); assay: Inhibition of human Nav1.1 by whole cell voltage clamp analysis
[4] = target: T3, Sodium channel protein type 2 subunit alpha (Homo sapiens, UniProt Q99250); assay: Inhibition of human Nav1.2 by whole cell voltage clamp analysis
T3 sequence (Q99250 whole entry): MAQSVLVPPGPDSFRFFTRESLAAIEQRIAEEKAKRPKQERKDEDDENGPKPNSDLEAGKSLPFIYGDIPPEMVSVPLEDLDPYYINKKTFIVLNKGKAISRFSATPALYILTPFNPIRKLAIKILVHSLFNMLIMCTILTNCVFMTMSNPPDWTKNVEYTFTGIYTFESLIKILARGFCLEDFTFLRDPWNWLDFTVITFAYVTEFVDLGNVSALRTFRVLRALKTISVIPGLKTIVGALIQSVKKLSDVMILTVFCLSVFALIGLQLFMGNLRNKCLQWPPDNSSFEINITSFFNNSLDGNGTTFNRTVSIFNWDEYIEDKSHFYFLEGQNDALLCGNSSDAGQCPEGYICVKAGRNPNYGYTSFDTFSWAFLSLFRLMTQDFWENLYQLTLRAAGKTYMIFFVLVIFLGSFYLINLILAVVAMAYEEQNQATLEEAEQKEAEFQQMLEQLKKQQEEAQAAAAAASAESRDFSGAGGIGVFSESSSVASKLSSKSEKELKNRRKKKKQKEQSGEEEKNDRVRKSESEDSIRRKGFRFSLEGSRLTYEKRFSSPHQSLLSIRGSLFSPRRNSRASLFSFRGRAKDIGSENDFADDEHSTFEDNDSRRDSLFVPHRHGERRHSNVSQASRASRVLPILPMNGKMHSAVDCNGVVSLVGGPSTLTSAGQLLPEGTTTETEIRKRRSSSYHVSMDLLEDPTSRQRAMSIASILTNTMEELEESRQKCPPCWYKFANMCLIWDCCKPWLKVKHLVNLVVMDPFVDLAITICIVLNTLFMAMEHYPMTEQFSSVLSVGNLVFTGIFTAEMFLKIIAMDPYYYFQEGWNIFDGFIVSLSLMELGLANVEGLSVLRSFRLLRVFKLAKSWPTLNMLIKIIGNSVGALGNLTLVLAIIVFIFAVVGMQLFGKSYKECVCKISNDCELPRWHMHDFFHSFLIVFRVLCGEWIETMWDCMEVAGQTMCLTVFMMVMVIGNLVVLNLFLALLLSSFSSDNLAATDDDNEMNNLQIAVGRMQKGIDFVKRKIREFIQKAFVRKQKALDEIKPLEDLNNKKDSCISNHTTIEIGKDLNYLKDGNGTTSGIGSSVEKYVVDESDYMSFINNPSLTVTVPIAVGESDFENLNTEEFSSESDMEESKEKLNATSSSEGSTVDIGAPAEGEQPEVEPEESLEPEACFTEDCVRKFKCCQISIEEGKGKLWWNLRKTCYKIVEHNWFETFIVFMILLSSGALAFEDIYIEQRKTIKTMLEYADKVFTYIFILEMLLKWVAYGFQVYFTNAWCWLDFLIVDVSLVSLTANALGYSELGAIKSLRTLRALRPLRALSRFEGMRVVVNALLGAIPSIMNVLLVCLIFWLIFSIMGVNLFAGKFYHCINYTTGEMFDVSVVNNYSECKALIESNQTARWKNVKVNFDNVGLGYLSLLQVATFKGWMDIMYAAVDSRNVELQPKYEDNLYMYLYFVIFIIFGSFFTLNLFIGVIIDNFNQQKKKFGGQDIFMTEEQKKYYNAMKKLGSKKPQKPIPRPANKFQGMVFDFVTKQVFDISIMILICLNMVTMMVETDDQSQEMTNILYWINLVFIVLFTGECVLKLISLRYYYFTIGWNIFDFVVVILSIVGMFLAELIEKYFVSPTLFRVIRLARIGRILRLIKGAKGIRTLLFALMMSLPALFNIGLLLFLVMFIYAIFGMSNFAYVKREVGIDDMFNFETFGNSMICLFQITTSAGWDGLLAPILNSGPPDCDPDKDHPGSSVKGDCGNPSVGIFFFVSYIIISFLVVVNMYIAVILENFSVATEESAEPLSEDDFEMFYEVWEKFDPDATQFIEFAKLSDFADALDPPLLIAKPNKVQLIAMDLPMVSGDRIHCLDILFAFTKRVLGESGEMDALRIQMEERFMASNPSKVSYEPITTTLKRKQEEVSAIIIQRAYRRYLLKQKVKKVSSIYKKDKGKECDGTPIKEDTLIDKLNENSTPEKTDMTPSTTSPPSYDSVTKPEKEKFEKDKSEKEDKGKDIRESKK

[5] = target: T4, Sodium channel protein type 8 subunit alpha (Homo sapiens, UniProt Q9UQD0); assay: Inhibition of human Nav1.6 by whole cell voltage clamp analysis
[6] = target: Sodium channel protein type 9 subunit alpha (Homo sapiens, UniProt Q15858); assay: Inhibition of human Nav1.7 expressed in HEK293 cells by sodium flux analysis; format: cell-based
Cytochrome P450 1A2 = Cytochrome P450 1A2 (Homo sapiens, UniProt P05177); assay: Inhibition of CYP1A2 (unknown origin); format: ADME
Cytochrome P450 3A4 = Cytochrome P450 3A4 (Homo sapiens, UniProt P08684); assay: Inhibition of CYP3A4 (unknown origin); format: ADME
Sequence of Cytochrome P450 3A4 (P08684 whole entry): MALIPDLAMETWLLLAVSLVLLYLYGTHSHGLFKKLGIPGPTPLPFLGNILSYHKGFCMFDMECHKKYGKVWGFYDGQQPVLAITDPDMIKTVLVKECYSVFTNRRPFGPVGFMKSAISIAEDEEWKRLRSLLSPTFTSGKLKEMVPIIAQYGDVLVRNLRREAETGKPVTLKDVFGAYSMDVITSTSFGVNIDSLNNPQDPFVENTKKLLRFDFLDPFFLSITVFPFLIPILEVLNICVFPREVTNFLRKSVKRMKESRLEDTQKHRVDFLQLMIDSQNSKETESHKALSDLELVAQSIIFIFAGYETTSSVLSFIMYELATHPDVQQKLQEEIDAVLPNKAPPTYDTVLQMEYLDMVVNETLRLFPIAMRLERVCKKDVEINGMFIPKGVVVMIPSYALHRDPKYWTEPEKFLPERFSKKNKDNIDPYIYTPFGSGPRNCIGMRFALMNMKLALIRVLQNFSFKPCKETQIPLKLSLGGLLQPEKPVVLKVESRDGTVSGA

Cytochrome P450 2C19 = Cytochrome P450 2C19 (Homo sapiens, UniProt P33261); assay: Inhibition of CYP2C19 (unknown origin); format: ADME
Sequence of Cytochrome P450 2C19 (P33261 whole entry): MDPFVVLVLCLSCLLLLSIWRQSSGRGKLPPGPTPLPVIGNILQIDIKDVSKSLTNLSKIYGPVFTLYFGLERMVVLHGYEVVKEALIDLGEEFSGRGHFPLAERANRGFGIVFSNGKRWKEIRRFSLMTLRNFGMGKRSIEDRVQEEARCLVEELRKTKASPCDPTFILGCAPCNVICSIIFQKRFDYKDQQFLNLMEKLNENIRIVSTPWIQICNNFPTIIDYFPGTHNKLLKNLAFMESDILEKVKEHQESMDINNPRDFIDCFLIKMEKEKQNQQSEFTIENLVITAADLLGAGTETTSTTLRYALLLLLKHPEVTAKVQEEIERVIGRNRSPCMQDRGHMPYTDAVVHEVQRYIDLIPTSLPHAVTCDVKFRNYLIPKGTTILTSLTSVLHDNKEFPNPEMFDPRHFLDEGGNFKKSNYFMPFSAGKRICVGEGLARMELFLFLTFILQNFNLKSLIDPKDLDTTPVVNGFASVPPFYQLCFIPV

Cytochrome P450 2D6 = Cytochrome P450 2D6 (Homo sapiens, UniProt P10635); assay: Inhibition of CYP2D6 (unknown origin); format: ADME
Cytochrome P450 2C9 = Cytochrome P450 2C9 (Homo sapiens, UniProt P11712); assay: Inhibition of CYP2C9 (unknown origin); format: ADME
hERG (KCNH2) = hERG (KCNH2) (Homo sapiens, UniProt Q12809); assay: Inhibition of human ERG at 10 uM by voltage clamp method
[7] = target: Kv channel-interacting protein 2/Potassium voltage-gated channel subfamily D member 3 (Homo sapiens, UniProt Q9UK17+Q9NS61); assay: Inhibition of Kv4.3/KChIP2.2 (unknown origin) by voltage clamp method; format: protein-complex assay
[8] = target: Voltage-gated potassium channel, IKs; KCNQ1(Kv7.1)/KCNE1(MinK) (Homo sapiens, UniProt P51787+P15382); assay: Inhibition of KvLQT1/mink (unknown origin) by voltage clamp method; format: protein-complex assay
[9] = target: Voltage-dependent L-type calcium channel subunit alpha-1C (Homo sapiens, UniProt Q13936); assay: Inhibition of Cav1.2 (unknown origin) by voltage clamp assay
[10] = Clearance in FVB mouse at 1 mg/kg, iv; format: ADME, organism-based; conditions: in vivo
[11] = Half life in FVB mouse at 1 mg/kg, iv; format: ADME, organism-based; conditions: in vivo
[12] = Volume of distribution at steady state in FVB mouse at 1 mg/kg, iv; format: ADME, organism-based; conditions: in vivo, read-out: Vdss
[13] = AUC in FVB mouse at 1 mg/kg, iv; format: ADME, organism-based; design: dose 1 mg/kg; conditions: in vivo
[14] = Cmax in FVB mouse at 10 mg/kg, po; format: ADME, organism-based; design: route oral, dose 10 mg/kg; conditions: in vivo
[15] = Half life in FVB mouse at 10 mg/kg, po; format: ADME, organism-based; conditions: in vivo
[16] = AUC in FVB mouse at 10 mg/kg, po; format: ADME, organism-based; design: dose 10 mg/kg; conditions: in vivo
[17] = Oral bioavailability in FVB mouse at 10 mg/kg; format: ADME, organism-based; conditions: in vivo
[18] = Anti-arrythmic activity in human iPSC-derived cardiomyocytes assessed as shortening of ATX-II induced APD90 prolongation at 100 nM in presence of 15 to 30 nM ATX-II by current clamp analysis; format: functional; conditions: iPSC-CM
[19] = target: T1, Sodium channel protein type 5 subunit alpha; assay: Displacement of [3H]BNZA from Nav1.5 (unknown origin)
[20] = target: T1, Sodium channel protein type 5 subunit alpha; assay: Inhibition of human Nav1.5 by V1/2 protocol based analysis
[21] = target: T2, Sodium channel protein type 1 subunit alpha; assay: Inhibition of human Nav1.1 by V1/2 protocol based analysis
[22] = target: T3, Sodium channel protein type 2 subunit alpha; assay: Inhibition of human Nav1.2 by V1/2 protocol based analysis
[23] = target: T4, Sodium channel protein type 8 subunit alpha; assay: Inhibition of human Nav1.6 by V1/2 protocol based analysis
[24] = target: T1, Sodium channel protein type 5 subunit alpha; assay: Inhibition of human Nav1.5 expressed in HEK293 cells by sodium influx assay; format: cell-based
[25] = target: T2, Sodium channel protein type 1 subunit alpha; assay: Inhibition of human Nav1.1 expressed in HEK293 cells by sodium influx assay; format: cell-based
[26] = target: T3, Sodium channel protein type 2 subunit alpha; assay: Inhibition of human Nav1.2 expressed in HEK293 cells by sodium influx assay; format: cell-based
[27] = target: T4, Sodium channel protein type 8 subunit alpha; assay: Inhibition of human Nav1.6 expressed in HEK293 cells by sodium influx assay; format: cell-based
[28] = Drug uptake in FVB mouse brain at 10 mg/kg, po measured after 2 hrs; format: ADME, organism-based; conditions: read-out: Drug uptake
[29] = Plasma concentration in FVB mouse at 10 mg/kg, po measured after 2 hrs; format: ADME, organism-based
[30] = Ratio of drug level in brain to plasma in FVB mouse at 10 mg/kg, po measured after 2 hrs; format: ADME, organism-based; conditions: read-out: BPR
[31] = Anti-arrythmic activity in human iPSC-derived cardiomyocytes assessed as reduction in upstroke velocity dV/dt(Vmax) at 100 nM in presence of 15 to 30 nM ATX-II by current clamp analysis; format: functional; conditions: iPSC-CM
[32] = target: T1, Sodium channel protein type 5 subunit alpha; assay: Inhibition of human Nav1.5 expressed in HEK293 cells assessed as inhibition of peak channel current at holding potential of -95 mV; format: cell-based
[33] = target: T1, Sodium channel protein type 5 subunit alpha; assay: Inhibition of human Nav1.5 expressed in HEK293 cells assessed as inhibition of late channel current at holding potential of -95 mV; format: cell-based
Nav1.5 (SCN5A) = Nav1.5 (SCN5A) (Homo sapiens, UniProt Q14524); assay: State dependent inhibition of human Nav1.5 expressed in HEK293 cells assessed as shift in compound IC50 at rested state at membrane potential of -120 mV relative to partially inactivated state at membrane potential of -95 mV; format: cell-based; conditions: HEK293 cells that express human Nav1.5, read-out: FC
[34] = target: Potassium voltage-gated channel subfamily B member 1 (Homo sapiens) (UniProt Q14721); assay: Inhibition of Kv2.1 (unknown origin) by voltage clamp method
[35] = target: Potassium voltage-gated channel subfamily A member 5 (Homo sapiens) (UniProt P22460); assay: Inhibition of Kv1.5 (unknown origin) by voltage clamp method
[36] = target: Voltage-gated potassium channel KCNC2 (Homo sapiens) (UniProt Q96PR1); assay: Inhibition of Kv3.2 (unknown origin) by voltage clamp method
[37] = target: Potassium/sodium hyperpolarization-activated cyclic nucleotide-gated channel 2 (Homo sapiens) (UniProt Q9UL51); assay: Inhibition of HCN2 (unknown origin) by voltage clamp method
[38] = target: Potassium/sodium hyperpolarization-activated cyclic nucleotide-gated channel 4 (Homo sapiens) (UniProt Q9Y3Q4); assay: Inhibition of HCN4 (unknown origin) by voltage clamp method
Homo sapiens [39] = species: Homo sapiens; assay: Inhibition of Kv4.2/KChIP2.2 (unknown origin) by voltage clamp method
[40] = target: Voltage-dependent N-type calcium channel subunit alpha-1B (Homo sapiens) (UniProt Q00975); assay: Inhibition of Cav2.2 (unknown origin) by voltage clamp assay
[41] = target: Voltage-dependent T-type calcium channel subunit alpha-1G (Homo sapiens) (UniProt O43497); assay: Inhibition of Cav3.1 (unknown origin) by voltage clamp assay
[42] = target: Voltage-dependent T-type calcium channel subunit alpha-1I (Homo sapiens) (UniProt Q9P0X4); assay: Inhibition of Cav3.3 (unknown origin) by voltage clamp assay
Homo sapiens [43] = species: Homo sapiens; assay: Inhibition of GABA channel (unknown origin) by voltage clamp assay
[44] = target: Transient receptor potential cation channel subfamily V member 1 (Homo sapiens) (UniProt Q8NER1); assay: Inhibition of TRPV1 (unknown origin) by voltage clamp assay
[45] = target: 5-hydroxytryptamine receptor 3A (Homo sapiens) (UniProt P46098); assay: Inhibition of 5HT3A channel (unknown origin) by voltage clamp assay
Homo sapiens [46] = species: Homo sapiens; assay: Selectivity ratio of IC50 for inhibition of human Nav1.5 expressed in HEK293 cells assessed as inhibition of peak current to IC50 for inhibition of human Nav1.5 expressed in HEK293 cells assessed as inhibition of late current; format: cell-based
iPSC-CM [47] = assay: Anti-arrythmic activity in human iPSC-derived cardiomyocytes assessed as AP amplitude at 100 nM in presence of 15 to 30 nM ATX-II by current clamp analysis; format: functional, cell-based
Homo sapiens [48] = species: Homo sapiens; assay: Selectivity ratio of IC50 for human Nav1.1 to IC50 for human Nav1.5
Homo sapiens [49] = species: Homo sapiens; assay: Selectivity ratio of IC50 for human Nav1.2 to IC50 for human Nav1.5
Homo sapiens [50] = species: Homo sapiens; assay: Selectivity ratio of IC50 for human Nav1.6 to IC50 for human Nav1.5
iPSC-CM [51] = assay: Anti-arrythmic activity in human iPSC-derived cardiomyocytes assessed as maximum diastolic membrane potential at 100 nM in presence of 15 to 30 nM ATX-II by current clamp analysis; format: functional, cell-based

O=S(=O)(Nc1cccc(F)n1)c1cc(F)c(OC2CCN(CC(F)(F)F)CC2c2ccc(F)c(F)c2)cc1F (single isomer, unassigned; (-))
Ratio IC50 (Homo sapiens [1]): > 40

O=S(=O)(Nc1cccc(F)n1)c1cc(F)c(O[C@H]2CCN(CC(F)(F)F)C[C@@H]2c2ccc(F)c(F)c2)c(F)c1 (stereo in doubt; (-)-6) [listing 1 of 2 here]
IC50 [2]: 0.039 µM | IC50 [3]: 0.62 µM | IC50 [4]: 0.27 µM | IC50 [5]: 0.23 µM | IC50 [6]: 0.22 µM | inhibition (INH) (Cytochrome P450 1A2): Not Active | inhibition (INH) (Cytochrome P450 3A4): Not Active | inhibition (INH) (Cytochrome P450 2C19): Not Active | inhibition (INH) (Cytochrome P450 2D6): Not Active | IC50 (Cytochrome P450 2C9): 2.2 µM | inhibition at 10 µM (hERG (KCNH2)): 5% | inhibition (INH) [7]: Not Active | inhibition (INH) [8]: Not Active | inhibition (INH) [9]: Not Active | clearance [10]: 0.228 L/h/kg | half-life [11]: 2.6 h | Vd [12]: 0.8 L/kg | AUC [13]: 7.6 µM·h | Cmax [14]: 3.6 µM | half-life [15]: 2.7 h | AUC [16]: 30 µM·h | bioavailability [17]: 39% | inhibition at 0.1 µM [18]: 84% | Ki [19]: 0.37 µM | IC50 [20]: 0.11 µM | IC50 [21]: 0.09 µM | IC50 [22]: 0.012 µM | IC50 [23]: 0.11 µM | IC50 [24]: 0.044 µM | IC50 [25]: 0.56 µM | IC50 [26]: 0.27 µM | IC50 [27]: 0.11 µM | concentration at 2 h [28]: 2.03 µM | concentration at 2 h [29]: 6.44 µM | Kp at 2 h [30]: 0.32 | inhibition at 0.1 µM [31]: 23% | IC50 [32]: 0.0177 µM | IC50 [33]: 0.0158 µM | selectivity ratio (Nav1.5 (SCN5A)): 24

O=S(=O)(Nc1cccc(F)n1)c1cc(F)c(O[C@H]2CCN(CC(F)(F)F)C[C@@H]2c2ccc(F)c(F)c2)c(F)c1 (stereo in doubt; (-)-6) [listing 2 of 2 here]
inhibition [34]: inactive | inhibition [35]: inactive | inhibition [36]: inactive | inhibition [37]: inactive | inhibition [38]: inactive | inhibition (Homo sapiens [39]): inactive | inhibition [40]: inactive | inhibition [41]: inactive | inhibition [42]: inactive | inhibition (Homo sapiens [43]): inactive | inhibition [44]: inactive | inhibition [45]: inactive | Ratio IC50 (Homo sapiens [46]): 1.1 | Activity (iPSC-CM [47]): inactive | Ratio IC50 (Homo sapiens [48]): 16 | Ratio IC50 (Homo sapiens [49]): 7 | Ratio IC50 (Homo sapiens [50]): 6 | Activity (iPSC-CM [51]): inactive
